Laboratory results as given in patent US5908788A, “Method of monitoring patient compliance with medications prescriptions” (priority 1996, dated 1999).
Where “and” joins values, the source holds several entries; their conditions need not be identical. Equal entries are not always repeated.

Assays:
[1] = Urine Coc level of patient on codeine; format: in vivo, human; details: Table J, patient four
Procedure: (§1) Shown in FIG. 13 are mean nup values for codeine as a function of daily, total dose. […]. Her mean codeine level while stabilized on 90 mg of codeine qd, as shown on FIG. 13, should be 19,102 +/-3840 ng/ml.

[2] = in vivo
Text: To determine compliance with the prescribed medication dose, random urine samples are obtained from the patient and analyzed in accordance with the invention as described in FIG. 9. […] The raw urine medication concentration (u) is next converted to a normalized urine medication concentration (nu) as discussed below. Over time, a normalized urine medication concentration-daily medication dose relationship is derived for each individual patient, which can be compared to the relationship expected for that particular patient. Alternatively, by adjusting the normalized urine medication concentration relative to the urinary pharmacokinetic parameters for each medication, a urinary-parameter normalized urine medication concentration (nup) may be calculated and compared to that expected for an average patient to determine compliance with the patient's prescribe medication dose.
nu=u'=u·(v/v')=u·UVPRF=u·(k1
The relationships for any medication family between nu and the medication pharmacokinetic parameters are empirically developed using regression analysis.
nup (patient body weight/k3)·u·UVPRF (19)
Two methods of interpreting urine medication results for compliance monitoring have now been developed. The first and most primitive method is to simply establish, using data from controls and compliant patients, mean drug levels and the expected ranges (minimums and maximums) for the nup of each particular medication at each particular daily, total dose amount.

[3] = Urine opiate concentration (codeine, oxycodone), urinary-parameter normalized; format: in vivo, human
Procedure: as §1
patient three is a person requiring opioid medications for severe arachnoiditis following surgery in the lumber spine. They were prescribed oxycodone without acetaminophen since they are status post removal of one kidney because of renal carcinoma. Shown in Table K are their oxycodone levels (40 mg per day total dose) which are within acceptable limits of 800-1600 ng/ml.

[4] = Renal excretion rate in timed urine aliquots of compliant control subjects; format: in vivo, human; details: as function of urine volume production rate, during a typical day
[5] = Urine methadone concentration (FPIA) of maintenance patients, with calculated plasma methadone concentration and urinary-parameter normalized urine concentration
Text: The unadulterated sample is next analyzed for raw urine methadone concentration, preferably using fluorescence polarization immunoassay (FPIA) technology. In this regard an Abbott TDX or ADX Analyzer may be profitably employed. Other standard analytical methods may also be used such as chromatography or other types of immunoassay. […]
where cl is renal clearance (ml/min), u is raw urine methadone concentration (ng/ml), v is the volume of urine collected in time (ml/min) or otherwise known as the urine volume production rate, and p is the measured plasma methadone concentration at the midpoint of the collection period (ng/ml).
Combining all of the above considerations, plasma methadone concentrations can be calculated by substituting Equations (2, 8, 9 and 10) in Equation (3): [formula] where values of u, specific gravity, and pH are known from previous test results on a patient's spot urine sample. The equation may be more generally expressed as follows: […]
p=k3 ·u·(k1 SGF-k2)/k4
FIG. 6 was developed by utilizing data from 8300 urine samples from 150 methadone maintenance patients on controlled daily methadone dosages.
The parameters of a patient's urine, such as pH and specific gravity, vary from one day to the next dependant upon the type and quantities of foods and beverages ingested. Additionally, individuals metabolizes these substances, as well as methadone, at different rates. To account for these variations, a urinary-parameter normalized urine methadone concentration, nup, is calculated that adjusts measured raw urine methadone concentration, u, in accordance with a prescribed methadone dose, urine specific gravity, patient's current body weight (lbs) and urine pH. The relationship between u, pH, dose and specific gravity was empirically developed using nonlinear regression analysis. […]
nup =(k3 /DOSE)^k4 ·(k5 /pH)^k6 […]
Given this value, another set of prediction equations specifying the allowable range for the next measured nup for a particular patient, given a sample size of n, a mean nup for an individual patient and either the patient standard deviation or the population standard deviation (whichever is least), can be calculated as shown in Hahn and Meeker. If the measured value is within the acceptable statistical range, given a previously calculated mean and standard deviation, then it is accepted. If the value is too high or too low, this is marked on the urine drug screen under the column called Pred, as shown in clinical cases #'s 4 and 5, Tables F and G.

[6] = Plasma methadone calculated from spot urine versus measured plasma methadone (FIG. 7)
migraine = test: Clinical cases: migraine in patients on methadone maintenance; format: in vivo, human
[7] = to deter illicit opioid use; past studies; cited from earlier work
[8] = Table A, compliant patient, dose 60 mg/day, individual dates
[9] = Table A, compliant patient, dose 70 mg/day, individual dates
[10] = Table A, mean of 12 tests, 60-70 mg/day
[11] = Table B, patient one, dose 45 mg, individual dates
[12] = Table B, patient one, mean of 12 tests, 45 mg
[13] = Table C, patient two, mean of 12 tests, dose 40-100
[14] = Table D, patient two (barbiturates discontinued), dose 130
[15] = Table D, patient two, mean of 12 tests, dose 110-130
[16] = Table G, mean of 13 tests, dose 130
[17] = patient two, 130 mg per day methadone

COC(=O)[C@H]1[C@@H](OC(=O)c2ccccc2)C[C@@H]2CC[C@H]1N2C [Coc]
Coc [1]: 0

Cc1nnc2n1-c1ccc(Cl)cc1C(c1ccccc1)=NC2 [alprazolam]
Xanax level, mean ([2]; human): 4268 ng/mL | SD of alprazolam normalized concentration, % of mean [2]: ~15% | SEE of nup = k*Dose [2]: 210 | importance of urine pH for nup [2]: not important

COc1ccc2c3c1O[C@H]1[C@@H](O)C=C[C@H]4[C@@H](C2)N(C)CC[C@@]341 [codeine]
mean codeine level (nup) ([3]; FIG. 13, patient four stabilized on 90 mg of codeine qd): 19,102 +/-3840 ng/ml | Opi (nup, codeine), mean ([3]; Table J, patient four, mean of 9 tests, 90 mg codeine qd): 19102 ng/mL

CN1C(=O)CN=C(c2ccccc2)c2cc(Cl)ccc21 [diazepam]
SEE of nup = k*Dose [2]: 806 | importance of urine pH for nup [2]: not important | nup per daily dose (coefficient of nup = k*Dose) [2]: 267(SE 16.9)

CCC(=O)C(CC(C)N(C)C)(c1ccccc1)c1ccccc1 (stereo not drawn) [methadone]
renal excretion rate (mg/min) [4]: relatively constant | nup, urinary-parameter normalized urine methadone concentration [5, 8]: 7448 ng/mL and 9473 ng/mL | u, raw urine methadone concentration [5, 8]: 7049 ng/mL and 4935 ng/mL | nup, urinary-parameter normalized urine methadone concentration [5, 9]: 6966 ng/mL and 7381 ng/mL and 10913 ng/mL and 7430 ng/mL and 7208 ng/mL and 6254 ng/mL and 5532 ng/mL and 7790 ng/mL and 5852 ng/mL and 6881 ng/mL | u, raw urine methadone concentration [5, 9]: 6838 ng/mL and 6536 ng/mL and 5462 ng/mL and 5180 ng/mL and 7398 ng/mL and 5990 ng/mL and 4203 ng/mL and 8469 ng/mL and 3736 ng/mL and 5601 ng/mL | nup, mean [5, 10]: 7427 ng/mL | u, mean [5, 10]: 5950 ng/mL | nup, urinary-parameter normalized urine methadone concentration [5, 11]: 21153 ng/mL and 25720 ng/mL and 22145 ng/mL and 32208 ng/mL and 10174 ng/mL and 13051 ng/mL and 15585 ng/mL and 17845 ng/mL and 7585 ng/mL and 10815 ng/mL and 20168 ng/mL and 18777 ng/mL | u, raw urine methadone concentration [5, 11]: 1069 ng/mL and 1336 ng/mL and 2109 ng/mL and 1883 ng/mL and 646 ng/mL and 1246 ng/mL and 1285 ng/mL and 757 ng/mL and 4094 ng/mL and 1318 ng/mL and 3900 ng/mL and 915 ng/mL | nup, mean [5, 12]: 17265 ng/mL | u, mean [5, 12]: 1713 ng/mL | u, raw urine methadone concentration ([5]; Table C, patient two, dose 40): 174 ng/mL and 296 ng/mL | nup, urinary-parameter normalized urine methadone concentration ([5]; Table C, patient two, dose 50): 2924 ng/mL | u, raw urine methadone concentration ([5]; Table C, patient two, dose 50): 853 ng/mL | nup, urinary-parameter normalized urine methadone concentration ([5]; Table C, patient two, dose 65): 1367 ng/mL | nup, urinary-parameter normalized urine methadone concentration ([5]; Table C, patient two, dose 80): 1070 ng/mL | u, raw urine methadone concentration ([5]; Table C, patient two, dose 80): 1120 ng/mL | nup, mean [5, 13]: 1709 ng/mL | u, mean [5, 13]: 1456 ng/mL | nup, urinary-parameter normalized urine methadone concentration [5, 14]: 7728 ng/mL and 5944 ng/mL and 5117 ng/mL | u, raw urine methadone concentration [5, 14]: 4915 ng/mL and 6565 ng/mL and 9494 ng/mL | nup, urinary-parameter normalized urine methadone concentration ([5]; Table D, patient two, dose 110): 6580 ng/mL and 6703 ng/mL and 10880 ng/mL and 6025 ng/mL | nup, urinary-parameter normalized urine methadone concentration ([5]; Table D, patient two, dose 120): 8970 ng/mL and 6778 ng/mL and 8074 ng/mL and 11966 ng/mL and 6031 ng/mL | nup, mean [5, 15]: 7236 ng/mL | u, mean [5, 15]: 7036 ng/mL | Pred (flag: nup outside statistical range predicted for patient) ([5]; Table F, case #4, dose 140): High | nup, mean ([5]; Table F, mean of 11 tests, dose 120-140): 5130 ng/mL | u, mean ([5]; Table F, mean of 12 tests, dose 120-140): 8008 ng/mL | Pred (flag: nup outside statistical range predicted for patient) ([5]; Table G, case #5, dose 130): LOW and HIGH | nup, mean [5, 16]: 8396 ng/mL | u, mean [5, 16]: 10585 ng/mL | average population standard deviation of nup ([5]; acceptably compliant methadone patients): about 3000 | plasma methadone levels over time ([5]; patient two, Tables C and D, after discontinuing barbiturate-containing compounds): increased | adjusted squared multiple R, estimated versus measured plasma methadone concentration ([6]; FIG. 7): 0.987 | slope, estimated versus measured plasma methadone concentration ([6]; FIG. 7, linear regression, intercept -1.25 (SE 11.495), F-ratio 810): 0.970 (SE 0.034) | migraine attacks during treatment (migraine; patient one, 36 months, 45 mg methadone): 2 migraine attacks | frequency and severity of migraines (migraine; patient one, titration to 45 mg methadone): migraines slowly decayed in frequency and severity | plasma methadone level related to migraine attacks (migraine; patient one, transient decrease after vomiting): below 80 ng/ml | migraine response (migraine; [17]): migraines ceased completely | plasma methadone level at which migraines ceased completely (migraine; [17]): above 135 ng/ml | optimum/necessary (24-hour trough) plasma methadone concentration [7]: 150 to 600 ng/mL

Oc1ccc2c3c1O[C@H]1[C@@H](O)CC[C@@]4(O)[C@@H](C2)N(CC2CCC2)CC[C@]314 [nalbuphine]
control of migraine pain (migraine; patient two, self-administered IM): failure

COc1ccc2c3c1O[C@H]1C(=O)CC[C@@]4(O)[C@@H](C2)N(C)CC[C@]314 [oxycodone]
nup, Opi (oxycodone), mean ([3]; Table K, patient three, mean of 12 tests, 40 mg per day): 1206 ng/mL | oxycodone levels, acceptable limits ([3]; patient three, 40 mg per day total dose): 800 to 1600 ng/mL
